Measurements: US9387204B2, “Fused bicyclic imidazoles” (BAYER INTELLECTUAL PROPERTY GmbH, priority 2007, dated 2016)

System: A549 cells
Experiment: Cellular proliferation/cytotoxicity assay (Alamar Blue), A549 cells
Conditions: Homo sapiens, A549, 72 h, read-out: Anti-proliferative/Cytotoxic activity (A549 cells)
Method: The anti-proliferative activity of the compounds as described herein, is evaluated using the OvCAR3, HCT116 and A549 cell lines and the Alamar Blue (Resazurin) cell viability assay (O'Brien et al. Eur J Biochem 267, 5421-5426, 2000). Resazurin is reduced to the fluorescent resorufin by cellular dehydrogenase activity, correlating with viable, proliferating cells. Test compounds are dissolved as 10 mM solutions in DMSO and subsequently diluted. Cells like HCT116 or A549 cells were seeded into 96 well flat bottom plates at a density of 10000 cells/well (OvCAR3 cells), 1000 cells/well (HCT116 cells) or 2000 cells/well (A549 cells) in a volume of 200 μl/well. 24 hours after seeding, 1 μl each of the compound dilutions are added into each well of the 96 well plates. Each compound dilution is tested as at least as duplicates. Wells containing untreated control cells were filled with 200 μl DMEM (Dulbecco's Modified Eagle Medium) containing 0.5 vol % v:v DMSO. The cells are then incubated with the substances for 72 h at 37° C. in a humidified atmosphere containing 5 vol % CO2. To determine the viability of the cells, 20 μl of a Resazurin solution (90 mg/l) are added. After 4 h incubation at 37° C., the fluorescence is measured by extinction at ? =544 nm and an emission of ? =590 nm (Wallac Victor2; Perkin Elmer, USA). For the calculation of the cell viability, the emission value from untreated cells is set as 100% viability and the fluorescence intensity of treated cells are set in relation to the values of untreated cells. Viabilities are expressed as % values. The corresponding IC50 values of the compounds for cytotoxic activity are determined from the concentration-effect curves by means of non-linear regression. The analysis of the data is performed using a biostatistical program (Graph Pad Prism, USA).

Structure (SMILES)	IC50 [µM]
O=C(O)c1ccn2c(-c3ccccc3)c(-c3ccc(CN4CCC(c5nnc(-c6ccccn6)[nH]5)CC4)cc3)nc2c1 [Example 125, 3-phenyl-2-[4-({4-[5-(pyridin-2-yl)-4H-1,2,4-triazol-3-yl]piperidin-1-yl}methyl)phenyl]imidazo[1,2-a]pyridine-7-carboxylic acid]	> 10
Cc1ccn2c(-c3ccccc3)c(-c3ccc(CN4CCC(c5nnc(-c6ccccn6)[nH]5)CC4)cc3)nc2c1 [Example 50, 7-methyl-3-phenyl-2-[4-({4-[5-(pyridin-2-yl)-4H-1,2,4-triazol-3-yl]piperidin-1-yl}methyl)phenyl]imidazo[1,2-a]pyridine]	> 10
c1ccc(-c2nnc(C3CCN(Cc4ccc(-c5nc6sccn6c5-c5ccccc5)cc4)CC3)[nH]2)cc1 [Example 122, 5-phenyl-6-(4-{[4-(5-phenyl-4H-1,2,4-triazol-3-yl)piperidin-1-yl]methyl}phenyl)imidazo[2,1-b][1,3]thiazole]	< 10
c1ccc(-c2nc(C3CCN(Cc4ccc(-c5nc6ncccn6c5-c5ccsc5)cc4)CC3)n[nH]2)nc1 [Example 34, 2-(4-{[4-(5-pyridin-2-yl-1,2,4-triazol-3-yl)piperidin-1-yl]methyl}phenyl)-3-(3-thienyl)imidazo[1,2-a]pyrimidine]	> 10
c1ccc(-c2nc(C3CCN(Cc4ccc(-c5nc6ccccn6c5-c5cccs5)cc4)CC3)n[nH]2)nc1 [Example 17, 2-(4-{[4-(5-pyridin-2-yl-1,2,4-triazol-3-yl)piperidin-1-yl]methyl}phenyl)-3-(2-thienyl)imidazo[1,2-a]pyridine]	< 10
COc1nccn2c(-c3ccccc3)c(-c3ccc(CN4CCC(c5n[nH]c(-c6ccccn6)n5)CC4)cc3)nc12 [Example 27, 8-methoxy-3-phenyl-2-(4-{[4-(5-pyridin-2-yl-1,2,4-triazol-3-yl)piperidin-1-yl]methyl}phenyl)imidazo[1,2-a]pyrazine]	< 10
Cc1cccc(-c2nnc(C3CCN(Cc4ccc(-c5nc6ncccn6c5-c5ccccc5)cc4)CC3)[nH]2)n1 [Example 63, 2-[4-({4-[5-(6-methylpyridin-2-yl)-4H-1,2,4-triazol-3-yl]piperidin-1-yl}methyl)phenyl]-3-phenylimidazo[1,2-a]pyrimidine]	> 10
Clc1nccn2c(-c3ccccc3)c(-c3ccc(CN4CCC(c5n[nH]c(-c6ccccn6)n5)CC4)cc3)nc12 [Example 26, 8-chloro-3-phenyl-2-(4-{[4-(5-pyridin-2-yl-1,2,4-triazol-3-yl)piperidin-1-yl]methyl}phenyl)imidazo[1,2-a]pyrazine]	> 10
N#Cc1ccn2c(-c3ccccc3)c(-c3ccc(CN4CCC(c5nnc(-c6ncccn6)[nH]5)CC4)cc3)nc2c1 [Example 78, 3-phenyl-2-[4-({4-[5-(pyrimidin-2-yl)-4H-1,2,4-triazol-3-yl]piperidin-1-yl}methyl)phenyl]imidazo[1,2-a]pyridine-7-carbonitrile]	< 10
Clc1cnc2nc(-c3ccc(CN4CCC(c5n[nH]c(-c6ccccn6)n5)CC4)cc3)c(-c3ccccc3)n2c1 [Example 21, 6-chloro-3-phenyl-2-(4-{[4-(5-pyridin-2-yl-1,2,4-triazol-3-yl)piperidin-1-yl]methyl}phenyl)imidazo[1,2-a]pyrimidine]	< 10
FC(F)(F)c1ccn2c(-c3ccccc3)c(-c3ccc(CN4CCC(c5n[nH]c(-c6ccccn6)n5)CC4)cc3)nc2n1 [Example 28, 3-phenyl-2-(4-{[4-(5-pyridin-2-yl-1,2,4-triazol-3-yl)piperidin-1-yl]methyl}phenyl)-7-(trifluoromethyl)imidazo[1,2-a]pyrimidine]	> 10
Clc1ccn2c(-c3ccccc3)c(-c3ccc(CN4CCC(c5nnc(-c6ccccn6)[nH]5)CC4)cc3)nc2c1 [Example 54, 7-chloro-3-phenyl-2-(4-{[4-(5-pyridin-2-yl-4H-1,2,4-triazol-3-yl)piperidin-1-yl]methyl}phenyl)imidazo[1,2-a]pyridine]	< 10
c1ccc(-c2c(-c3ccc(CN4CCC(c5n[nH]c(-c6ccccn6)n5)CC4)cc3)nc3ccccn23)cc1 [Example 2, 3-phenyl-2-(4-{[4-(5-pyridin-2-yl-1H-1,2,4-triazol-3-yl)piperidin-1-yl]methyl}phenyl)imidazo[1,2-a]pyridine]	< 10
c1ccc(-c2c(-c3ccc(CN4CCC(c5n[nH]c(-c6ccccn6)n5)CC4)cc3)nc3ncccn23)cc1 [Example 1, 3-phenyl-2-(4-{[4-(5-pyridin-2-yl-1,2,4-triazol-3-yl)piperidin-1-yl]methyl}phenyl)imidazo[1,2-a]pyrimidine]	> 10
c1ccc(-c2c(-c3ccc(CN4CCC(c5n[nH]c(-c6ccccn6)n5)CC4)cc3)nc3cnccn23)cc1 [Example 37, 3-phenyl-2-(4-{[4-(5-pyridin-2-yl-1,2,4-triazol-3-yl)piperidin-1-yl]methyl}phenyl)imidazo[1,2-a]pyrazine]	> 10

Same assay, conditions: read-out: Anti-proliferative/Cytotoxic activity (A549 cells); A549 cells, 72 h, Alamar Blue (Resazurin)

Structure (SMILES)	IC50 [µM]
N#Cc1ccn2c(-c3ccccc3)c(-c3ccc(CN4CCC(c5nc(-c6ccncc6)n[nH]5)CC4)cc3)nc2c1 [Example 57, ′3-phenyl-2-(4-{[4-(3-pyridin-4-yl-1H-1,2,4-triazol-5-yl)piperidin-1-yl]methyl}phenyl)imidazo[1,2-a]pyridine-7-carbonitrile]	< 10
c1ccc(-c2c(-c3ccc(CN4CCC(c5nnc(-c6ccco6)[nH]5)CC4)cc3)nc3ccccn23)cc1 [Example 91, ′2-[4-({4-[5-(2-furyl)-4H-1,2,4-triazol-3-yl]piperidin-1-yl}methyl)phenyl]-3-phenylimidazo[1,2-a]pyridine]	< 10
N#Cc1cccn2c(-c3ccccc3)c(-c3ccc(CN4CCC(c5n[nH]c(-c6ccc(Cl)cn6)n5)CC4)cc3)nc12 [Example 75, ′2-[4-({4-[5-(5-chloropyridin-2-yl)-1H-1,2,4-triazol-3-yl]piperidin-1-yl}methyl)phenyl]-3-phenylimidazo[1,2-a]pyridine-8-carbonitrile]	> 10
c1ccc(-c2c(-c3ccc(CN4CCC(c5nnc(-c6nccs6)[nH]5)CC4)cc3)nc3ccccn23)cc1 [Example 85, ′3-phenyl-2-[4-({4-[5-(1,3-thiazol-2-yl)-4H-1,2,4-triazol-3-yl]piperidin-1-yl}methyl)phenyl]imidazo[1,2-a]pyridine]	> 10
N#Cc1ccn2c(-c3ccccc3)c(-c3ccc(CN4CCC(c5nnc(-c6ccco6)[nH]5)CC4)cc3)nc2c1 [Example 96, ′2-[4-({4-[5-(2-furyl)-4H-1,2,4-triazol-3-yl]piperidin-1-yl}methyl)phenyl]-3-phenylimidazo[1,2-a]pyridine-7-carbonitrile]	< 10
c1ccc(-c2c(-c3ccc(CN4CCC(c5n[nH]c(-c6nccs6)n5)CC4)cc3)nc3ncccn23)cc1 [Example 84, ′3-phenyl-2-[4-({4-[5-(1,3-thiazol-2-yl)-1H-1,2,4-triazol-3-yl]piperidin-1-yl}methyl)phenyl]imidazo[1,2-a]pyrimidine]	> 10
N#Cc1ccn2c(-c3ccccc3)c(-c3ccc(CN4CCC(c5nnc(-c6ccc[nH]6)[nH]5)CC4)cc3)nc2c1 [Example 110, ′3-phenyl-2-[4-({4-[5-(1H-pyrrol-2-yl)-4H-1,2,4-triazol-3-yl]piperidin-1-yl}methyl)phenyl]imidazo[1,2-a]pyridine-7-carbonitrile]	< 10
c1ccc(-c2c(-c3ccc(CN4CCC(c5nnc(-c6ccco6)[nH]5)CC4)cc3)nc3scnn23)cc1 [Example 94, ′6-[4-({4-[5-(2-furyl)-4H-1,2,4-triazol-3-yl]piperidin-1-yl}methyl)phenyl]-5-phenylimidazo[2,1-b][1,3,4]thiadiazole]	< 10
N#Cc1ccn2c(-c3ccccc3)c(-c3ccc(CN4CCC(c5nnc(-c6nccs6)[nH]5)CC4)cc3)nc2c1 [Example 89, ′3-phenyl-2-[4-({4-[5-(1,3-thiazol-2-yl)-4H-1,2,4-triazol-3-yl]piperidin-1-yl}methyl)phenyl]imidazo[1,2-a]pyridine-7-carbonitrile]	< 10
N#Cc1ccn2c(-c3ccccc3)c(-c3ccc(CN4CCC(c5noc(-c6ccccn6)n5)CC4)cc3)nc2c1 [Example 115, ′3-phenyl-2-(4-{[4-(5-pyridin-2-yl-1,2,4-oxadiazol-3-yl)piperidin-1-yl]methyl}phenyl)imidazo[1,2-a]pyridine-7-carbonitrile]	> 10
c1ccc(-c2c(-c3ccc(CN4CCC(c5cc(-c6ccccn6)[nH]n5)CC4)cc3)nc3sccn23)cc1 [Example 113, ′5-phenyl-6-(4-{[4-(5-pyridin-2-yl-1H-pyrazol-3-yl)piperidin-1-yl]methyl}phenyl)imidazo[2,1-b][1,3]thiazole]	< 10
Cc1ccc2nc(-c3ccc(CN4CCC(c5nnc(-c6ccc[nH]6)[nH]5)CC4)cc3)c(-c3ccccc3)n2n1 [Example 104, ′6-methyl-3-phenyl-2-[4-({4-[5-(1H-pyrrol-2-yl)-4H-1,2,4-triazol-3-yl]piperidin-1-yl}methyl)phenyl]imidazo[1,2-b]pyridazine]	< 10
Cc1cccc(-c2nnc(C3CCN(Cc4ccc(-c5nc6scnn6c5-c5ccccc5)cc4)CC3)[nH]2)n1 [Example 67, ′6-[4-({4-[5-(6-methylpyridin-2-yl)-4H-1,2,4-triazol-3-yl]piperidin-1-yl}methyl)phenyl]-5-phenylimidazo[2,1-b][1,3,4]thiadiazole]	< 10
c1ccc(-c2c(-c3ccc(CN4CCC(c5nnc(-c6nccs6)[nH]5)CC4)cc3)nc3sccn23)cc1 [Example 87, ′5-phenyl-6-[4-({4-[5-(1,3-thiazol-2-yl)-4H-1,2,4-triazol-3-yl]piperidin-1-yl}methyl)phenyl]imidazo[2,1-b][1,3]thiazole]	< 10
Cc1ccc2nc(-c3ccc(CN4CCC(c5nnc(-c6ncccn6)[nH]5)CC4)cc3)c(-c3ccccc3)n2n1 [Example 83, ′6-methyl-3-phenyl-2-(4-{[4-(5-pyrimidin-2-yl-4H-1,2,4-triazol-3-yl)piperidin-1-yl]methyl}phenyl)imidazo[1,2-b]pyridazine]	> 10
